Test results as given in publication PMC5899049 (ACS infectious diseases, 2017).
Values after ≈ are worked out from the molar mass of the structure shown. Where two headings read alike, the source gives them in different places.

Key:
[1] = tested on: P. falciparum, Dd2 strain (MRA-150); conditions: read-out: P. falciparum growth inhibition IC50; Dd2 (MRA-150) strain; data reported previously; cited from earlier work
[2] = tested on: E. coli, strain BL21(DE3); assay: E. coli growth inhibition assay; format: cell-based, Escherichia coli; conditions: for % E. coli growth inhibition (18 h): NI = no inhibition
[3] = molecular target: Recombinant P. falciparum IspD (Plasmodium falciparum, UniProt Q8I273); assay: Pf IspD enzymatic assay; format: biochemical; conditions: for PfIspD % inhibition at 1 μM (1000 nM): 1 μM (1000 nM) compound, 60 nM Pf IspD, NI = no inhibition; for IC50: read-out: PfIspD IC50, measured at 60 nM Pf IspD
[4] = tested on: Arabidopsis thaliania IspD; conditions: concentrations up to 10 μM; cited from earlier work
[5] = molecular target: P. falciparum IspD; conditions: read-out: P. falciparum IspD Ki; cited from earlier work
[6] = tested on: E. coli, strain BL21(DE3); conditions: 500 μM; NI = no inhibition; data reported previously; cited from earlier work
[7] = molecular target: T1, Human IspD (hIspD) (Homo sapiens, UniProt A4D126); assay: Human IspD enzymatic assay; format: biochemical; conditions: 2 μM hIspD, 37 °C, 16 h
T1 sequence (A4D126 1-451): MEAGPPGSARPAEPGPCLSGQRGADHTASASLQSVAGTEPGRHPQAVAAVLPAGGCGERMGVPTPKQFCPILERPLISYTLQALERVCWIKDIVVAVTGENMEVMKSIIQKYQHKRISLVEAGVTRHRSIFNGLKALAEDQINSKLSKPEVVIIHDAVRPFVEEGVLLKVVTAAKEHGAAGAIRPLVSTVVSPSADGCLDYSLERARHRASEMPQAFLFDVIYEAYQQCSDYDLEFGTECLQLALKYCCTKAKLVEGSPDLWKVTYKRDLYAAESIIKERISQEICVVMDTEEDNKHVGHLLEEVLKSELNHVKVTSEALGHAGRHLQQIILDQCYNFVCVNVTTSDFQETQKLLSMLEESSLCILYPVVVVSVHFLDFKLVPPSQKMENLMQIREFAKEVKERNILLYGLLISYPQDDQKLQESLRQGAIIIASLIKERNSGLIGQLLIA

[8] = tested on: Mycobacterium tuberculosis IspD; conditions: concentrations up to 10 μM; cited from earlier work
[9] = tested on: P. falciparum (Dd2 strain); assay: Cytocidal; format: cell-based, Plasmodium falciparum; conditions: LC50 could not be determined
[10] = tested on: MEP pathway intermediates (CDP-ME, MEcPP, IPP) in P. falciparum schizont stage parasites; assay: MEP pathway metabolite profiling by LC-MS/MS; format: cell-based, Plasmodium falciparum; conditions: 1 μM 1a or 7a, 10 μM FOS; for Decrease in cellular levels of Pf IspD product CDP-ME: schizont stage; for Reduction of the IPP levels: 4 h treatment
[11] = tested on: Escherichia coli IspD (EcIspD); conditions: concentrations up to 10 μM; cited from earlier work
[12] = tested on: P. falciparum, Dd2 strain (MRA-150); assay: P. falciparum growth inhibition; conditions: Plasmodium falciparum, DD2, 72 h, read-out: IC50 value at 72 h
[13] = tested on: MEP pathway metabolites in parasites starting at ring stage; conditions: 5 μM FOS for 10 h starting at ring stage; ref 24 (Zhang et al.); cited from earlier work

O=C(O)[C@@H]1Cc2c([nH]c3ccccc23)[C@H](c2ccc(Cl)cc2Cl)N1 [5a]
IC50 [1]: > 10000 nM | % E. coli growth inhibition (18 h) ([2]; 125 μM): no effect

Clc1ccc(C2NCCc3c2[nH]c2ccccc32)c(Cl)c1 (stereo not shown) [11a]
PfIspD % inhibition at 1 μM (1000 nM) [3]: 7% inh. @ 1000 | % E. coli growth inhibition (18 h) ([2]; 250 μM): 45 ± 10 @ 250 μM %

CNC(=O)C1Cc2c([nH]c3ccccc23)C(c2ccc(Br)cc2Cl)N1 (stereo not shown) [7j]
IC50 [3]: 21 ± 6 nM

CNC(=O)C1Cc2c([nH]c3ccccc23)C(c2ccc(Cl)cc2Br)N1 (stereo not shown) [7k]
IC50 [3]: 31 ± 4 nM

O=C(O)[C@H]1Cc2c([nH]c3ccccc23)[C@@H](c2ccc(Cl)cc2Cl)N1 (single isomer, unassigned; ent-5a) [ent-5a]
IC50 [1]: 3000 ± 200 nM | PfIspD % inhibition at 1 μM (1000 nM) [3]: 27 ± 5% inh. @ 1 μM | % E. coli growth inhibition (18 h) ([2]; 250 μM): 18 ± 6 @ 250 μM %

O=C(O)[C@@H]1Cc2c([nH]c3ccccc23)[C@@H](c2ccc(Cl)cc2Cl)N1 [1a, (1R,3S)-MMV008138]
Inhibition of Arabidopsis thaliania IspD [4]: did not inhibit | Ki [5]: 7 to 13 nM | IC50 [1]: 250 ± 70 nM | % E. coli growth inhibition (18 h) [6]: no effect | Human IspD CDP-ribitol formation ([7]; 20 μM 1a): not inhibited | Human IspD CDP-ribitol formation ([7]; 200 μM 1a): not inhibited | Inhibition of Mycobacterium tuberculosis IspD [8]: did not inhibit | Parasite growth at 72 h after wash-out ([9]; 6 h incubation): grow similarly to untreated controls | Parasite growth at 72 h after wash-out ([9]; 12 h incubation): grow similarly to untreated controls | Decrease in cellular levels of Pf IspD product CDP-ME ([10]; 2 h exposure): 67 ± 2% | Decrease in cellular levels of Pf IspD product CDP-ME ([10]; 4 h exposure): 84 ± 8% | Reduction of the IPP levels [10]: > 90% | Inhibition of Escherichia coli IspD [11]: did not inhibit | IC50 [12]: 350 ± 30 nM

O=C(O)[C@H]1Cc2c([nH]c3ccccc23)[C@H](c2ccc(Cl)cc2Cl)N1 (single isomer, unassigned; ent-1a) [ent-1a]
IC50 [1]: > 10000 nM | % E. coli growth inhibition (18 h) ([2]; 250 μM): no effect

COc1ccc(C2NC(C(=O)O)Cc3c2[nH]c2ccccc32)cc1OC (stereo not shown) [1x]
IC50 [1]: > 20000 nM

CCNC(=O)C1Cc2c([nH]c3ccccc23)C(c2ccc(Cl)cc2Cl)N1 (stereo not shown) [8a]
IC50 [3]: ~1000 nM

O=CN(O)CCCP(=O)(O)O [FOS, fosmidomycin, reference compound]
IC50 [1]: 880 ± 70 nM | inhibition at 10 µM ([3]; read-out: PfIspD % inhibition at 10 μM, 10 μM compound, 60 nM Pf IspD): ~4% | Decrease in cellular levels of Pf IspD product CDP-ME ([10]; 2 h exposure): did not cause significant reduction | Decrease in cellular levels of Pf IspD product CDP-ME ([10]; 4 h exposure): did not cause significant reduction | Reduction of the IPP levels [10]: > 90% | MIC ([2]; Escherichia coli, 18 h, read-out: E. coli minimum inhibitory concentration (MIC)): 11.99 ± 0.02 µM (≈ 2.2 µg/mL) | Levels of CDP-ME [13]: reduced levels
